Columns and labels:
Format in all cases: in vivo
[1] = peroral toxicity to mammals (rat); settings: in vivo, po, dose required to achieve mortality rate of 50 percent, read-out: A.O. RAT LD50
Protocol: (§1) Certain of these compositions were also evaluated to determine their peroral toxicity to mammals. The animal selected for this experiment was the rat. The test results obtained are expressed in terms of the number of milligrams of compositions per kilogram of weight of the animal required to achieve a mortality rate of 50 percent (LD50).

[2] = tested on: root-knot nematode, Meloidogyne incognita var. acrita; test: Nematocide Test; parameters: key: 1: severe galling, equal to untreated plants; 2: moderate galling; 3: light galling; 4: very light galling; 5: no galling, perfect control; settings: 3.33 m.g. of test compound per jar; cucumber, approximately 3 weeks
Protocol: The test organism used was the infective migratory larvae of the root-knot nematode, Meloidogyne incognita var. acrita, reared in the greenhouse on roots of cucumber plants. Infected plants were removed from the culture, and the roots are chopped very finely. A small amount of this inoculum was added to a pint jar containing approximately 180 cc. of soil. The jars were capped and incubated for one week at room temperature. During this period eggs of the nematode were hatched, and the larval forms migrated into the soil.
Ten ml. of the test formulation were added to each of the two jars for each dosage tested. Following the addition of chemical, the jars were capped, and the contents thoroughly mixed on a ball mill for 5 minutes.
The test compounds were formulated by a standard procedure of solution in acetone addition of an emulsifier, and dilution with water. Primary screening tests were conducted at 3.33 m.g. of the test compound per jar.
The jars were left capped at room temperature for a period of 48 hours, and the contents then transferred to 3 inch pots. Subsequently, the pots were seeded to cucumber as an indicator crop and placed in the greenhouse where they were cared for in the normal fashion for approximately 3 weeks.
The cucumber plants were then taken from the pots, the soil removed from the roots, and the amount of galling visually rated.
In the test for activity against nematodes activity was rated as follows: […]

rat = test: peroral toxicity to mammals (rat); settings: dose required to achieve mortality rate of 50 percent
Protocol: as §1

Row | Molecule | LD50 [1] | NEMATODES activity rating (galling) [2] | A.O. RAT LD50 (rat)
1 | CC(C)C(=O)C(C)(C)SN(C)C(=O)ON=C1SC(C)(C)C(=O)N1C [2-[O-[N-methyl-(2,4-dimethyl-3-oxo-2-pentanesulfenyl)carbamoyl]oximino]-3,5,5-trimethylthiazolidin-4-one] | 226 mg/kg | – | –
2 | CSC(C)=NOC(=O)N(C)SC(C)(C)C(=O)C(C)C [1-Methylthioacetaldehyde O-[N-methyl-N-(2,4-dimethyl-3-oxo-2-pentanesulfenyl)carbamoyl]oxime] | 134 mg/kg | 1 | –
3 | CN(SC(C)(C)C(=O)c1ccccc1)C(=O)ON=C1SC(C)(C)C(=O)N1C [2-[[O-[N-methyl-N-(2-benzoyl-2-propanesulfenyl)carbamoyl]oximino]]-3,5,5-trimethylthiazolidin-4-one] | – | 3 | –
4 | CC(C)C(=O)C(C)(C)SN(C)C(=O)Oc1cccc2c1OC(C)(C)C2 [7-[N-methyl-N-(2,4-dimethyl-3-oxo-2-pentanesulfenyl)carbamoyloxy]-2,2-dimethyl-2,3-dihydrobenzofuran] | 31 mg/kg | – | –
5 | CC(=NOC(=O)N(C)SC(C)(C)C(=O)C(C)C)SC(C)C [1Isopropylthioacetaldehyde O-[N-methyl-N-(2,4-dimethyl-3-oxo-2-pentanesulfenyl)carbamoyl]oxime] | 37 mg/kg | 3 | –
6 | 4-[[0-[N-Methyl-N-(2,4-dimethyl-3-oxo-2-pentanethiosulfenyl)carbamoyl]oximino]]-5-methyl-1,3-oxathiolane | – | 3 | 8 mg/kg
7 | CC(C)C(=O)C(C)(C)SN(C)C(=O)ON=CC(C)(C)[N+](=O)[O-] [2-Nitro-2-methylpropionaldehyde O-[N-methyl-N-(2,4-dimethyl-3-oxo-2-pentanesulfenyl)carbamoyl]oxime] | 12 mg/kg | – | –
8 | CSC(C)(C)C=NOC(=O)N(C)SC(C)(C)C(=O)C(C)C [2-Methylthio-2-methylpropionaldehyde O-[N-methyl-N-(2,4-dimethyl-3-oxo-2-pentanesulfenyl)carbamoyl]oxmine] | – | 3 | –
9 | CSC(C)=NOC(=O)N(C)SSC(C)(C)C(=O)C(C)C [1-Methylthioacetaldehyde 0-[N-methyl-N-(2,4-dimethyl-3-oxo-2-pentanethiosulfenyl)carbamoyl]oxime] | 226 mg/kg | 3 | –
10 | CC(C)C(=O)C(C)(C)SN(C)C(=O)ON=C(C#N)c1ccccc1 [α-Cyanobenzaldehyde 0-[N-methyl-N-(2,4-dimethyl-3-oxo-2-pentanesulfenyl)carbamoyl]oxime] | – | 3 | –
11 | CC(C)C(=O)C(C)(C)SN(C)C(=O)ON=C1SCOC1C (centres unmarked) [4-[[O-[N-methyl-N-(2,4-dimethyl-3-oxo-2-pentanesulfenyl)carbamoyl]oximino]]-5-methyl-1,3-oxathiolane] | 16 mg/kg | – | –
12 | 1-(2-Cyanoethylthio)acetaldehyde 0-[N-methyl-N-(2,4-dimethyl-3-oxo-2-pentanethiosulfenyl)carbamoyl]oxime | – | 5 | –
13 | CSC(C)=NOC(=O)N(C)SSC(C)(C)C(=O)c1ccccc1 [1-Methylthioacetaldehyde O-[N-methyl-N-(2-benzoyl-2-propanethiosulfenyl)carbamoyl]oxime] | 226 mg/kg | – | –
14 | CC(=NOC(=O)N(C)SSC(C)(C)C(=O)C(C)C)SC(C)C [1-Isopropylthioacetaldehyde 0-[N-methyl-N-(2,4-dimethyl-3-oxo-2-pentanethiosulfenyl)carbamoyl]oxime] | 42 mg/kg | 4 | –
15 | CC(C)C(=O)C(C)(C)SN(C)C(=O)ON=C1CSCCS1 [2-[[O-[N-methyl-N-(2,4-dimethyl-3-oxo-2-pentanesulfenyl)carbamoyl]oximino]]-1,4-dithiane] | – | 3 | –

— US4179514A, “Ketoalkanesulfenyl and ketoalkanethiosulfenyl carbamates” (priority 1978, dated 1979)
